Experimental data as given in PubChem BioAssay AID463074 (Broad Institute, 2010).
Calls of active or inactive are those of the source.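 How the source made its calls: active means AC50 no more than tenfold above the top dose tested, or full inhibition at every dose with a flat fit (cut at about 19 µM in these data); inconclusive means flat curve fit with inhibition between 30% and 70%, or poor fit; inactive means AC50 more than tenfold above the top dose tested.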

System: HMLE_sh_eGFP viability, CellTiter-Glo luminescence, 72 h
Assay: cytotoxicity in HMLE control line with eGFP shRNA, dose response, counter-screen for HMLE_sh_ECad selective toxicity project, cell-based, HMLE_sh_eGFP, luminescence (AID 463074);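 further: counterscreen control line to flag general toxicity for the HMLE_sh_ECad screen; potency for loss of viability as luminescence drops below DMSO wells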

Row | SMILES | AC50
1 | COc1ccc(C(C)(C)C)cc1NC(=O)Nc1ccc2c(c1)OCO2 | 8.21 µM
2 | COc1cc(-c2ccc3c(=O)c4ccccc4n(C)c3c2)cc(OC)c1OC | 8.21 µM
3 | Cc1nn(Cc2c(Cl)cccc2Cl)c(C)c1NC(=O)c1cn(-c2ccccc2)nc1-c1ccccc1 | 1.19 µM
4 | COc1ccc2sc(-c3ccccc3OC)c(-c3ccc(O)cc3)c2c1 | 6.71 µM
5 | COC(=O)c1c(NC(=O)COc2ccc(Cl)cc2Cl)sc2c1CC(C)(C)NC2(C)C | 6.62 µM
6 | COc1cccc2sc3cc(C#CC4(O)CCCCC4)ccc3c(=O)c12 | 3.1 µM
7 | O=C(c1cc(-c2cccc(O)c2)on1)N1CCN(C(c2ccccc2)c2ccccc2)CC1 | 3.11 µM
8 | O=C(/C(=C/O)N=Nc1ccc(Cl)cc1)c1ccncc1 | 6.53 µM
9 | Cc1cc(NCc2ccccn2)n2nc(C)c(-c3ccc(Cl)cc3)c2n1 | 5.92 µM
10 | NC(=O)CC(NC(=O)Cc1ccc(Br)cc1)c1ccc(N2CCN(c3ccccc3)CC2)c([N+](=O)[O-])c1 (configuration not stated) | 17.6 µM
11 | COc1ccc(NC(=O)c2cc3ccccc3cc2O)cc1 | 8.3 µM
12 | C#CCOCCOCCOCCNc1nc(N2CCN(C(=O)CCCCCCCCCCNC(=O)Cn3cc(C[C@@H](C)O)nn3)CC2)nc(N2CCN(C(=O)CCCCCCCCCCNC(=O)[C@@H]([C@H](C)O)n3cc(C)nn3)CC2)n1 | 4.83 µM
13 | CCCCSc1nc(C)cc(SCC(=O)N/N=C/c2cccc(OC)c2O)n1 | 11.8 µM
14 | CC(C)(c1ccccc1)c1ccc(OCCCN2CCNCC2)cc1 | 0.745 µM
15 | O=C(C1CCCN(S(=O)(=O)c2ccc([N+](=O)[O-])cc2)C1)N1CCCCC1 (configuration not stated) | > 19.5 µM (inactive)
16 | CCOC(=O)C(=NCCCN1CCOCC1)NNc1cccc(C(F)(F)F)c1 | 9.13 µM
17 | COc1ccc(-c2sc3ccccc3c2-c2ccc(OCCN(C)C)cc2)cc1 | 3.38 µM
18 | NS(=O)(=O)c1ccc(N/N=C/c2cn(-c3ccccc3)nc2-c2cccs2)c([N+](=O)[O-])c1 | 1.9 µM
19 | CCc1cc2cccc(C)c2nc1SCC(=O)c1ccc(NC(C)=O)cc1 | 4.62 µM
20 | Cc1oc2c(F)c(F)c(F)c(F)c2c1S(=O)(=O)Nc1cccc(C(F)(F)F)c1 | 4.95 µM
21 | CC1(C)CC[C@]2(CO)[C@@H](O)C[C@]3(C)C(=CCC4[C@@]5(C)CC[C@H](O)C(C)(C)C5CC[C@]43C)[C@@H]2C1 (some centres not stated) | 4.35 µM
22 | CCCCCc1cc(=O)oc2c(C(CCN3CCCCC3)c3ccc4c(c3)OCO4)c(OC)cc(OC)c12 (configuration not stated) | 6.89 µM
23 | O=c1cc(N2CCCCC2)c(-c2ccccc2)nn1Cc1ccc(Cl)cc1 | 3.77 µM
24 | c1cn2c(NC3CCCCC3)c(-c3ccc(SC4CCCCC4)cc3)nc2cn1 | 3.26 µM
25 | Cn1c(/C(C#N)=C(\O)COc2ccc3ccccc3c2)nc2ccccc21 | 0.359 µM
26 | CCOc1ccc2nc(NC3=NC(c4ccc(OC)cc4)CC(=O)N3)nc(C)c2c1 (configuration not stated) | 7.28 µM

Row | SMILES | AC50
27 | O=C(CN1c2ccccc2Sc2ccccc21)NNC(=O)Nc1ccc(Cl)c(Cl)c1 | 3.46 µM
28 | CC1CC1C(=O)N1CCN(S(=O)(=O)c2cc(C(F)(F)F)cc(C(F)(F)F)c2)CC1 (configuration not stated) | 6.27 µM
29 | OC(CN1CCCCC1)Cn1c2ccc(Cl)cc2c2cc(Cl)ccc21 (configuration not stated) | 7.56 µM
30 | CC(NC(=O)C1CCC(C(=O)NC(C)c2ccccc2)CC1)c1ccccc1 (configuration not stated) | > 19.5 µM (inactive)
31 | CCc1ccc2nc(N(CCCN(C)C)C(=O)c3ccc(S(=O)(=O)N4CCCc5ccccc54)cc3)sc2c1 | 6.98 µM
32 | CCCSc1nsc(NC(=O)C(c2ccccc2)c2ccccc2)n1 | 3.64 µM
33 | O/N=C(\c1ccc(Cl)cc1Cl)c1ncc(C(F)(F)F)cc1Cl | 13.9 µM
34 | Cc1ccccc1NCc1ccc([N+](=O)[O-])s1 | 10.6 µM
35 | COC(=O)Nc1nc2ccc(-c3n[nH]c(=O)c4ccccc34)cc2[nH]1 | 1.88 µM
36 | CN(CC(=O)Nc1ccc(Cl)c(Cl)c1)C(=O)C12CC3CC(CC(C3)C1)C2 | 6.2 µM
37 | CC(C)c1cc(-c2cc(-c3ccccc3)on2)nc(NC2CCCC2)n1 | 7.45 µM
38 | CC(C)=CCCC1(C)C=Cc2c(c(C)cc3c2[nH]c2cc(O)ccc23)O1 (configuration not stated) | 6.29 µM
39 | CN(C)CCCNc1ccc(-c2cc(Nc3cccc(Cl)c3)ncn2)cn1 | 4.8 µM
40 | Cc1ccc(NC(=O)Cn2c(O)c(N=NC(=O)c3cc4ccccc4cc3O)c3ccccc32)cc1 | 3.92 µM
41 | O=C(CS(=O)c1ccc(C(F)(F)F)cc1[N+](=O)[O-])Oc1ccccc1 (configuration not stated) | 5.22 µM
42 | CN(C)C(CNS(=O)(=O)c1ccc2ccccc2c1)c1ccccc1 (configuration not stated) | > 19.5 µM (inactive)
43 | Nc1c(S(=O)(=O)c2cccs2)c2nc3ccccc3nc2n1/N=C/c1cccc(O)c1 | 3.87 µM
44 | O=[N+]([O-])c1c(NCCCO)cc(Sc2ccc(Cl)cc2)c2nonc12 | 4.89 µM
45 | COc1ccccc1-c1oc2ccccc2c1C#CC1(N)CCCCC1 | 6.39 µM
46 | COc1ccc(-c2cc(C(F)(F)F)nc(S(C)(=O)=O)n2)cc1 | 3.56 µM
47 | COc1ccc(-c2cc([C@H]3[C@@H]4C=CCC[C@@]4(C)C(=O)N3Cc3ccccc3)ccc2F)cc1OC | 5.67 µM
48 | C=CCC[C@H](Cc1ccc(F)cc1)C(=O)OC[C@@H](Cc1c[nH]c2ccccc12)NC(=O)[C@H](CC=C)CC(=O)N(CCO)Cc1ccccc1 | 4.1 µM
49 | CCCCCCCCCCCCN1[C@@H](CC(C)=O)c2cc(F)ccc2S1(=O)=O | 10 µM
50 | CCc1ccc2c(c1)[C@H]1OCC[C@H]1[C@@H](c1cccs1)N2 | 2.06 µM
51 | O=c1c(Cl)c(NCc2ccc(F)cc2)cnn1C12CC3CC(CC(C3)C1)C2 | 2.15 µM
52 | CCC(=O)NNc1ccc(Br)cc1 | 6.69 µM

Row | SMILES | AC50
53 | CN(C)CCNc1nc2sc3c(c2c(=O)n1CCc1ccccc1)CCCCC3 | 7.1 µM
54 | CC(/C=N/NC(=O)c1cc(-c2ccc(C)s2)[nH]n1)=C\c1ccccc1 | 4.35 µM
55 | O=C(/C=C/c1ccc(Cl)c([N+](=O)[O-])c1)Nc1cccc(NC(=O)c2ccco2)c1 | 1.69 µM
56 | CC1(C)C[C@@H]2C[C@@](C)(CN2C(=O)c2cc(COc3cccc(C(F)(F)F)c3)on2)C1 | 4.8 µM
57 | CC(=O)Oc1ccc(-c2csc(Nc3ccc(Cl)cn3)n2)cc1 | 4.6 µM
58 | CCCC(O)(c1ccc(Cl)cc1)C(CN1CCOCC1)c1ccc(Cl)cc1 (configuration not stated) | 9.47 µM
59 | O=c1c2ccccc2nc(/C=C/c2ccccc2)n1-c1ccccc1O | 10.7 µM
60 | COc1ccc(-c2oc3ccccc3c2C#Cc2cncn2C)cc1 | 4.37 µM
61 | CCCCNc1c(-c2ccc(OC)c(SC(C)CC)c2)nc2ccc(C)cn12 (configuration not stated) | 6.78 µM
62 | Cc1nn(-c2ccccc2)c(C)c1/C=N/NC(=O)c1cc(-c2ccc(Br)s2)[nH]n1 | 4.72 µM
63 | O=C(CN(c1cccc(C(F)(F)F)c1)S(=O)(=O)c1ccc(Cl)c([N+](=O)[O-])c1)NCc1ccccc1Cl | 2.6 µM
64 | Cc1ncc(CN2CCCC(C(=O)Nc3ccc(-c4cccc(F)c4)cc3)C2)s1 (configuration not stated) | 11.7 µM
65 | Fc1ccc(NC(=S)Nc2cc(-c3ccccc3)[nH]n2)cc1Cl | 3.46 µM
66 | O=C(COCC(=O)Nc1cccc(C(F)(F)F)c1)Nc1cccc(C(F)(F)F)c1 | 7.59 µM
67 | COc1ccc([C@H]2Oc3cc(O)cc(O)c3C(=O)C2[C@@H]2C(=O)c3c(O)cc(O)cc3O[C@@H]2c2ccc(OC)cc2)cc1 (some centres not stated) | 10.6 µM
68 | CC(Nc1nc(-c2ccc(Cl)cc2)cs1)c1nc2cc(Cl)c(N3CCCCC3)cc2n1CCOCCO (configuration not stated) | 1.97 µM
69 | Cc1cccc(N(C)C(=O)c2cc3c(=O)[nH]c4ccc(C)cc4c3s2)c1 | 2.52 µM
70 | O=C(Nc1ccc(Cl)c(C(F)(F)F)c1)NC1CC2CCCC(C1)N2Cc1ccccc1 (configuration not stated) | 6.8 µM
71 | Nc1ccc(N2CCN(Cc3ccccc3Cl)CC2)c(Cl)c1 | 5.59 µM
72 | CCN1C(=O)/C(=C\N2CCN(c3cccc(Cl)c3)CC2)SC1=S | > 19.5 µM (inactive)
73 | O=C(Nc1ccc2c(c1)OCO2)c1cc(-c2cccc(O)c2)on1 | 1.65 µM
74 | CC(C)(C)c1cc(NCc2ccccn2)n2ncc(-c3ccccc3)c2n1 | 6.85 µM
75 | COc1cc(/C=N/NC(=O)c2cc(C34CC5CC(CC(C5)C3)C4)[nH]n2)ccc1O | 0.24 µM
76 | COc1cccc(Nc2nc(-c3ccccc3)nc3ccccc23)c1 | 7.67 µM
77 | COc1ccc(Nc2nc(-c3ccccc3O)nc3ccccc23)cc1 | 4.79 µM
78 | COc1ccc2sc(-c3ccc(N(C)C)cc3)c(C#Cc3cncn3C)c2c1 | 2.18 µM

Row | SMILES | AC50
79 | O=c1c(Cl)c(NCc2ccccc2Cl)cnn1C12CC3CC(CC(C3)C1)C2 | 2.43 µM
80 | CC(C)(C)[C@@H]1CCC(=O)N(CC[C@H](Sc2ccc(Br)cc2)c2ccccc2)CC1 | 3.38 µM
81 | CNC(=O)c1cc(Oc2ccc(NC(=O)Nc3ccc(Cl)c(C(F)(F)F)c3)cc2)ccn1 | 2.39 µM
82 | Cc1cccc(NS(=O)(=O)c2ccc(C3CCCCC3)cc2)c1 | 5.18 µM
83 | CC(C)c1ccc(/C=N/NC(=O)c2cccc(Cl)c2)cc1 | 8.64 µM
84 | COc1ccc(OC)c(-c2csc(N(CC3CCCO3)C(=O)C3CCCCC3)n2)c1 (configuration not stated) | 7.05 µM
85 | CC1(C)C=C2[C@H]3CC[C@@H]4[C@@]5(C)CCC(=O)C(C)(C)[C@@H]5CC[C@@]4(C)[C@]3(C)CC[C@@]2(C(=O)O)CC1 | 3.58 µM
86 | CCCOc1ccccc1-n1sc2c(c1=S)-c1cc(OC)cc3c1N(C(=O)C3=O)C2(C)C | 9.1 µM
87 | Oc1ccc(C[C@@H]2CNC(=S)N2CCCCC2CCCCC2)cc1 | 6.13 µM
88 | CCn1c(C)c(C)c2cc(C(=O)N3CCN(c4cccc(C)c4C)CC3)ccc21 | 5.44 µM
89 | O=C(Nc1ccc(Cl)c(Cl)c1)Nc1ccccc1O | 12.4 µM
90 | FC(F)(F)c1cc(CCN2CCNC[C@H]2Cc2cccc3ccccc23)cc(C(F)(F)F)c1 | 3.53 µM
91 | CC(C)(C)N(Cc1ccccc1)C(=O)c1cc2ccccc2o1 | 0.653 µM
92 | CCn1c(=O)c(C(=O)NCc2ccccc2OC)c(O)c2ccccc21 | 17.4 µM
93 | COc1cc(CNCCc2c[nH]c3ccccc23)ccc1OCc1ccc(F)cc1 | 4.2 µM
94 | CCn1c2ccccc2c2cc(NS(=O)(=O)c3ccc(C)cc3)ccc21 | 4.53 µM
95 | COc1ccc(C2NCCc3c2[nH]c2ccccc32)cc1COc1ccc(F)cc1 (configuration not stated) | 7.34 µM
96 | COc1ccc(Nc2nc(N)c([N+](=O)[O-])c(NC3CCCCC3)n2)cc1 | 4.58 µM
97 | O=C(NCCCSc1ccccc1)c1cc(Br)ccc1O | 5.85 µM
98 | CC(C)C[C@@H](CO)N(Cc1ccccc1)S(=O)(=O)N(Cc1ccccc1)[C@H](CO)CC(C)C | 7.24 µM
99 | Cc1cc(N/N=C/c2ccccc2Cl)nc(NCc2ccccc2)n1 | 4.04 µM
100 | CN1CCN(Cc2nc3ccccc3c(=O)n2Cc2nc(-c3ccc4ccccc4c3)cs2)CC1 | 3.59 µM
101 | CCN1CCN(CCNC(=O)c2ccc3c(c2)N(Cc2ccc(F)cc2)C(=O)/C(=C/c2ccccc2)S3)CC1 | 3.71 µM
102 | COc1cccc(-c2sc3ccc(OC)cc3c2C#CCCO)c1 | 8.26 µM
